Results published in US9463216B2 (priority 2012, dated 2016).

Tests used:
[1] = target: recombinant LT (PA + LF) (Bacillus anthracis, UniProt P13423); set-up: species or system BALB/cJ mice; details: mouse, in vivo
[2] = target: lethal toxin (PA + LF) (Bacillus anthracis, UniProt P13423)
[3] = system: PA uptake by J774 macrophages, ANTXR2-expressing (CCHO) and ANTXR2-null (PR230) chinese hamster ovary cells; format: cell-based, chinese hamster (CHO cells)
[4] = system: PA; format: biochemical, B. anthracis
[5] = target: PA (Bacillus anthracis, UniProt P13423); format: binding, B. anthracis
PA (Bacillus anthracis, UniProt P13423), sequence (P13423 30-764 limits assumed): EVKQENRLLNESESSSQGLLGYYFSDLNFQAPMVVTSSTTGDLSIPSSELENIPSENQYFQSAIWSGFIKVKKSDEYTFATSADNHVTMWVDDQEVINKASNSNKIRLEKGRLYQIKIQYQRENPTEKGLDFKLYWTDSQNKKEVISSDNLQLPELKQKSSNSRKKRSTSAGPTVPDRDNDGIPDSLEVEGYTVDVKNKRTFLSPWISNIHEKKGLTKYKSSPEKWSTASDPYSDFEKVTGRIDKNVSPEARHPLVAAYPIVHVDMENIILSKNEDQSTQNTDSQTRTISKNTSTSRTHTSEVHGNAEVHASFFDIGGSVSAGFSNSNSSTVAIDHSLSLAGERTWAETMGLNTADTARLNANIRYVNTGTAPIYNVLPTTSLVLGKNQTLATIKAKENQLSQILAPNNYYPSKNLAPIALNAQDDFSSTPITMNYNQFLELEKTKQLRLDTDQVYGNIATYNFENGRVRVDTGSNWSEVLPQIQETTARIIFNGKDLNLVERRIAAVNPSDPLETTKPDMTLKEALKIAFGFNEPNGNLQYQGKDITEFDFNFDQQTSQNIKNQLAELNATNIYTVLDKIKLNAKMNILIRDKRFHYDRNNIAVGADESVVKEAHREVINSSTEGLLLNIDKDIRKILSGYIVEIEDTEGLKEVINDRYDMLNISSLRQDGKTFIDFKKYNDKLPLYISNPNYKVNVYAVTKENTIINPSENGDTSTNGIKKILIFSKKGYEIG

[6] = system: J774 macrophages and PR230 cells; format: cell-based, chinese hamster (PR230 cells)

recombinant LT (PA + LF), sequence (P13423 30-764 limits assumed): as above
lethal toxin (PA + LF), sequence (P13423 30-764 limits assumed): as above

Row | Compound | protection of mice from LT [1] | effect on cell uptake of PA [3] | LT inhibitory activity of metal ion chelates [2] | inhibit LT-mediated cytolysis in bone marrow macrophage cells [2] | inhibition of PA oligomers [2] | effect on PA-binding to ANTXR2 or LF, PA oligomerization, or channel formation in vitro [4] | form complexes with PA [5] | other results
1 | N[C@@H](CCC(=O)O)C(=O)O [L-Glu, reference compound] | did not protect mice from LT | – | – | – | – | – | – | –
2 | Fe(III) [reference compound] | – | – | – | – | – | – | – | concentration at which Fe(III) alone may inhibit LT [2]: 10 mM; inhibitory Fe(III) concentration relative to concentrations effective in the Fe(III) co-complexes of compounds 1, 2, and 3 [2]: 10^3-10^4 fold; inhibitory activity of Fe(III) alone [2]: did not possess inhibitory activity
3 | bovine serum albumin [reference compound] | did not protect mice from LT | – | – | – | – | – | – | –
4 | γ-DLPGA [Compound 1] | completely protected | prevent proper cell uptake | only the Fe(III) chelate had LT inhibitory activity | could inhibit | equally inhibited | do not affect | can form complexes with PA | affinity for PA, higher than compound 2 [5]: 10 fold
5 | γ-DPGA [Compound 2] | completely protected | prevent proper cell uptake | only the Fe(III) chelate had LT inhibitory activity | could inhibit | equally inhibited | do not affect | can form complexes with PA | inhibitory activity after treatment with Cap D [1]: abolished the inhibitory activity; stimulation of PA internalization after pretreatment with Cap D [3]: eliminates the stimulation of PA internalization; binding to J774 macrophages and PR230 cells [6]: equal affinity; binding to Pronase-treated PR230 cells [6]: significantly reduced; formation of co-complexes with PA after pretreatment with Cap D [5]: prevents formation of co-complexes with PA
